Experimental data reported in ChEMBL document CHEMBL3217667, “Extended side chain analogues of 8-aminoquinolines: Synthesis and evaluation of antiprotozoal, antimicrobial, -hematin inhibition, and cytotoxic activities” (Medchemcomm, 2011).
Calls of active or inactive are those of the source. The calls are words filed in the database; no cut-off is given here.

Assays:
Staphylococcus aureus [1] = experiment: Antibacterial activity against methicillin-resistant Staphylococcus aureus up to 20 ug/ml; format: functional, organism-based
[2] = system: Mycobacterium intracellulare; experiment: Antibacterial activity against Mycobacterium intracellulare up to 20 ug/ml; format: functional, organism-based
Cryptococcus neoformans [3] = experiment: Antifungal activity against Cryptococcus neoformans up to 20 ug/ml by broth microdilution assay; format: functional, organism-based
Plasmodium falciparum [4] = experiment: Antimalarial activity against chloroquine-sensitive Plasmodium falciparum D6 by lactate dehydrogenase assay; format: functional, organism-based
[5] = Selectivity index, ratio of IC50 for African green monkey Vero cells to IC50 for chloroquine-sensitive Plasmodium falciparum D6; format: toxicity, cell-based; settings: read-out: Ratio IC50
Plasmodium falciparum [6] = experiment: Antimalarial activity against chloroquine-resistant Plasmodium falciparum W2 by lactate dehydrogenase assay; format: functional, organism-based
[7] = Selectivity index, ratio of IC50 for African green monkey Vero cells to IC50 for chloroquine-resistant Plasmodium falciparum W2; format: toxicity, cell-based; settings: read-out: Ratio IC50
Vero = experiment: Cytotoxicity against African green monkey Vero cells by neutral red uptake assay; format: cell-based; settings: Chlorocebus sabaeus
SK-MEL = experiment: Cytotoxicity against human SK-MEL cells by neutral red uptake assay; format: cell-based
KB = experiment: Cytotoxicity against human KB cells by neutral red uptake assay; format: cell-based
BT-549 = experiment: Cytotoxicity against human BT549 cells by neutral red uptake assay; format: cell-based
SK-OV-3 = experiment: Cytotoxicity against human SKOV3 cells by neutral red uptake assay; format: cell-based
LLC-PK1 = experiment: Cytotoxicity against pig LLC-PK1 cells by neutral red uptake assay; format: cell-based; settings: Sus scrofa
[8] = Inhibition of beta-hematin formation after 16 hrs; format: physicochemical
Leishmania donovani = experiment: Antileishmanial activity against Leishmania donovani promastigotes by Alamar Blue assay; format: functional, organism-based
Plasmodium berghei [9] = experiment: Antimalarial activity against Plasmodium berghei infected in mouse assessed as reduction in parasitemia at 10 mg/kg/day, po for 4 days measured up to day 7; format: functional, organism-based
Plasmodium berghei [10] = experiment: Antimalarial activity against Plasmodium berghei infected in mouse assessed as reduction in parasitemia at 25 mg/kg/day, po for 4 days measured up to day 60 relative to control; format: functional; parameters: scale not given: the % may be the effect or the level left
Plasmodium berghei [11] = experiment: Antimalarial activity against Plasmodium berghei infected in mouse assessed as reduction in parasitemia at 50 mg/kg/day, po for 4 days measured up to day 60 relative to control; format: functional; parameters: scale not given: the % may be the effect or the level left
Plasmodium berghei [12] = experiment: Antimalarial activity against Plasmodium berghei infected in mouse assessed as reduction in parasitemia at 100 mg/kg/day, po for 4 days measured up to day 60 relative to control; format: functional; parameters: scale not given: the % may be the effect or the level left
Plasmodium berghei [13] = experiment: Antimalarial activity against Plasmodium berghei infected in mouse assessed as reduction in parasitemia at 100 mg/kg/day, po for 4 days measured up to day 14; format: functional; parameters: scale not given: the % may be the effect or the level left
Pseudomonas aeruginosa = experiment: Antibacterial activity against Pseudomonas aeruginosa; format: functional, organism-based
Escherichia coli = experiment: Antibacterial activity against Escherichia coli; format: functional, organism-based
Candida albicans = experiment: Antifungal activity against Candida albicans by broth microdilution assay; format: functional, organism-based
Nakaseomyces glabratus = experiment: Antifungal activity against Candida glabrata by broth microdilution assay; format: functional, organism-based
Pichia kudriavzevii = experiment: Antifungal activity against Candida krusei by broth microdilution assay; format: functional, organism-based
Aspergillus fumigatus = experiment: Antifungal activity against Aspergillus fumigatus by broth microdilution assay; format: functional, organism-based
Staphylococcus aureus [14] = experiment: Antibacterial activity against Staphylococcus aureus; format: functional, organism-based
Staphylococcus aureus [15] = experiment: Antibacterial activity against methicillin-resistant Staphylococcus aureus; format: functional, organism-based
[16] = system: Mycobacterium intracellulare; experiment: Antibacterial activity against Mycobacterium intracellulare; format: functional, organism-based
Cryptococcus neoformans [17] = experiment: Antifungal activity against Cryptococcus neoformans by broth microdilution assay; format: functional, organism-based
[18] = Plasmodium falciparum, D6, read-out: IC50
[19] = Plasmodium falciparum, W2, read-out: IC50

| SMILES | IC50 (Plasmodium falciparum [4]; [18]) | selectivity ratio [5] | IC50 (Plasmodium falciparum [6]; [19]) | selectivity ratio [7] | IC50 (Vero) | IC50 (SK-MEL) | IC50 (KB) | IC50 (BT-549) | IC50 (SK-OV-3) | IC50 (LLC-PK1) | IC50 [8] | IC50 (Leishmania donovani) | IC90 (Leishmania donovani) | Activity (Plasmodium berghei [13]) | Activity (Pseudomonas aeruginosa) | Activity (Escherichia coli) | Activity (Candida albicans) | Activity (Nakaseomyces glabratus) | Activity (Pichia kudriavzevii) | Activity (Aspergillus fumigatus) | also measured |
| --- | --- | --- | --- | --- | --- | --- | --- | --- | --- | --- | --- | --- | --- | --- | --- | --- | --- | --- | --- | --- | --- |
| COc1cc(NC(C)CCCNC(C)CCCNC(C)CCCNC(C)CCCN)c2ncccc2c1.Cl (stereo unspecified) | 2.3 µg/mL | > 10.3 | 1.3 µg/mL | > 18.3 | > 23.8 µg/mL | > 23.8 µg/mL | > 23.8 µg/mL | > 23.8 µg/mL | > 23.8 µg/mL | > 23.8 µg/mL | 75 µM | 5 µg/mL | 40 µg/mL | 100% | inactive | inactive | inactive | inactive | inactive | inactive | Activity (Staphylococcus aureus [1]): inactive; Activity [2]: inactive; Activity (Cryptococcus neoformans [3]): inactive; Activity (Plasmodium berghei [9]): Active; Activity (Plasmodium berghei [10]): 100%; Activity (Plasmodium berghei [11]): 100%; Activity (Plasmodium berghei [12]): 100% |
| CCCCOc1c(OC)cc(NC(C)CCCNC(C)CCCN)c2nccc(CC)c12.Cl (stereo unspecified) | 0.6 µg/mL | > 39.6 | 0.37 µg/mL | > 64.2 | > 23.8 µg/mL | > 23.8 µg/mL | > 23.8 µg/mL | > 23.8 µg/mL | > 23.8 µg/mL | > 23.8 µg/mL | 10.2 µM | 3.5 µg/mL | 7 µg/mL | inactive | inactive | inactive | inactive | inactive | inactive | inactive | Activity [2]: inactive; Activity (Cryptococcus neoformans [3]): inactive; IC50 (Staphylococcus aureus [14]): 13.7 µg/mL; MBC (Staphylococcus aureus [14]): 20 µg/mL; MIC (Staphylococcus aureus [14]): 20 µg/mL; IC50 (Staphylococcus aureus [15]): 12.5 µg/mL; MBC (Staphylococcus aureus [15]): 20 µg/mL; MIC (Staphylococcus aureus [15]): 20 µg/mL; IC50 [16]: > 20 µg/mL; IC50 (Cryptococcus neoformans [17]): 7.9 µg/mL; MIC (Cryptococcus neoformans [17]): 20 µg/mL |
| COc1cc(NC(C)CCCNC(C)CCCNC(C)CCCNC(C)CCCN)c2nc(C(C)(C)C)ccc2c1.Cl (stereo unspecified) | 0.7 µg/mL | > 34 | 0.56 µg/mL | > 42.5 | > 23.8 µg/mL | > 23.8 µg/mL | > 23.8 µg/mL | > 23.8 µg/mL | > 23.8 µg/mL | > 23.8 µg/mL | 10.2 µM | 1.6 µg/mL | 7.3 µg/mL | 100% | inactive | inactive | inactive | inactive | inactive | inactive | Activity (Plasmodium berghei [9]): Active; Activity (Plasmodium berghei [10]): 100%; Activity (Plasmodium berghei [11]): 100%; Activity (Plasmodium berghei [12]): 100%; IC50 (Staphylococcus aureus [15]): 10 µg/mL; MBC (Staphylococcus aureus [15]): 20 µg/mL; MIC (Staphylococcus aureus [15]): 20 µg/mL; IC50 [16]: 15 µg/mL; MBC [16]: 20 µg/mL; MIC [16]: 20 µg/mL; IC50 (Cryptococcus neoformans [17]): 10 µg/mL; MFC (Cryptococcus neoformans [17]): 20 µg/mL; MIC (Cryptococcus neoformans [17]): 20 µg/mL |
| COc1cc(NC(C)CCCNC(C)CCCN)c2nc(C(C)(C)C)ccc2c1.Cl (stereo unspecified) | 0.19 µg/mL | > 125 | 0.12 µg/mL | > 198 | > 23.8 µg/mL | > 23.8 µg/mL | > 23.8 µg/mL | > 23.8 µg/mL | > 23.8 µg/mL | > 23.8 µg/mL | 7.5 µM | 2.8 µg/mL | 7.2 µg/mL | 100% | inactive | inactive | inactive | inactive | inactive | inactive | Activity [2]: inactive; Activity (Plasmodium berghei [9]): Active; Activity (Plasmodium berghei [10]): 100%; Activity (Plasmodium berghei [11]): 100%; Activity (Plasmodium berghei [12]): 100%; IC50 (Staphylococcus aureus [15]): 6.5 µg/mL; MBC (Staphylococcus aureus [15]): 20 µg/mL; MIC (Staphylococcus aureus [15]): 10 µg/mL; IC50 (Cryptococcus neoformans [17]): 10 µg/mL; MFC (Cryptococcus neoformans [17]): 20 µg/mL; MIC (Cryptococcus neoformans [17]): 20 µg/mL |
| COc1cc(NC(C)CCCNC(C)CCCNC(C)CCCN)c2nc(C(C)(C)C)ccc2c1.Cl (stereo unspecified) |  |  |  |  | > 23.8 µg/mL | > 23.8 µg/mL | > 23.8 µg/mL | > 23.8 µg/mL | > 23.8 µg/mL | > 23.8 µg/mL | > 1000 µM | 1.6 µg/mL | 4 µg/mL | 100% | inactive | inactive | inactive | inactive | inactive | inactive | Activity (Staphylococcus aureus [1]): inactive; IC50 (Plasmodium falciparum [4]): Not Active; IC50 (Plasmodium falciparum [6]): Not Active; Activity (Plasmodium berghei [9]): Active; Activity (Plasmodium berghei [10]): 100%; Activity (Plasmodium berghei [11]): 100%; Activity (Plasmodium berghei [12]): 100%; IC50 [16]: 9 µg/mL; MBC [16]: 20 µg/mL; MIC [16]: 20 µg/mL; IC50 (Cryptococcus neoformans [17]): 7.5 µg/mL; MFC (Cryptococcus neoformans [17]): 20 µg/mL; MIC (Cryptococcus neoformans [17]): 20 µg/mL |
